According to US7829595B2, “Rapid dissolution formulation of a calcium receptor-active compound” (Amgen Inc., priority 2003, dated 2010):
In brackets after ≈: the same amount, converted by molar mass. Where two headings read alike, the source gives them in different places.

Assay: Solubility of cinacalcet in water as a function of pH
Type: physicochemical
Experimental: Calcium receptor-active compounds are known in the art. One example of a calcium receptor-active compound is cinacalcet HCl, which is described, for example, in U.S. Pat. No. 6,001,884. Such calcium receptor-active compounds may be insoluble or sparingly soluble in water, particularly in their non-ionized state. […] However, when the pH is about 1, the solubility decreases to about 0.1 mg/mL. Such limited solubility can reduce the number of formulation and delivery options available for these calcium receptor-active compounds. Limited water solubility can also result in low bioavailability of the compounds.

solubility (aqueous buffer, pH ranges from about 3 to about 5, read-out: solubility): ~1600 µg/mL (≈ 4480 µM) | solubility (pH 1, simulated gastric fluid, pH about 1, read-out: solubility): ~100 µg/mL (≈ 280 µM) | solubility (pH 7, water, neutral pH, read-out: solubility in water): < 1 µg/mL
SMILES: C[C@@H](NCCCc1cccc(C(F)(F)F)c1)c1cccc2ccccc12 [cinacalcet, N-(1-(R)-(1-naphthyl)ethyl]-3-[3-(trifluoromethyl)phenyl]-1-aminopropane]
